Among the data in patent publication US11091501B2, “Heterocyclic compounds as RSV inhibitors” (Enanta Pharmaceuticals, Inc., priority 2017, dated 2021) are EC50 values, retold here.

In one test the test system is Human RSV-A (“Long” strain). Nature of the test: RSV in vitro cytoprotection assay (CPE, ATPlite) in HEp-2 cells. The class given is cell-based. Particulars: human respiratory syncytial virus, 96 h; HEp-2 cells, 4-day incubation, ATPlite readout; read-out: Human RSV-A (“Long” strain) EC50. The gist of the method: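 HEp-2 cells (8,000/well) given 2-fold serial compound dilutions in duplicate, then infected with sucrose-stabilised RSV-A Long stock. After 4 days, cell viability read by ATPlite luminescence, with a parallel uninfected plate for cytotoxicity. EC50 binned A<0.01 μM, B 0.01-0.05 μM, C>0.05 μM.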
In the case of `Cc1cnc(N2CC3(CCOCC3)C2)c(C(=O)Nc2ccc(C(=O)N3CCc4cc(-c5ccc[nH]c5=O)sc4-c4ccc(F)cc43)cc2)c1` [Example 182], the EC50 was less than 0.01 µM.
Still for that read-out and setting: the value for `O=C(Nc1c(F)cc(F)cc1Cl)c1cc2c(s1)-c1ccc(F)cc1N(C(=O)c1ccc(NC(=O)c3ccc(-c4cccs4)nc3N3CC4(CCOCC4)C3)cc1)CC2` [Example 27] was 0.01 to 0.05 µM.
On the same count and under the same terms, the value for `O=C(Nc1ncccc1Cl)c1cc2c(s1)-c1ccc(F)cc1N(C(=O)c1ccc(NC(=O)c3cc4c(nc3N3CC5(CCOCC5)C3)CCC4)cc1)CC2` [Example 140] was less than 0.01 µM; that for `Cc1ccc(C(=O)Nc2ccc(C(=O)N3CCc4c(sc(-c5nc6cccc(F)c6[nH]5)c4F)-c4ccccc43)cc2)c(N2CC3(CCOCC3)C2)n1` [Example 214] was less than 0.01 µM; that for `O=C(Nc1c(F)cc(F)cc1Cl)c1cc2c(s1)-c1ccc(F)cc1N(C(=O)c1ccc(NC(=O)c3ccc(C(F)(F)F)nc3N3CC4(CCOCC4)C3)cc1)CC2` [Example 23] was 0.01 to 0.05 µM.
Take `Cc1cnc(N2CC3(CCOCC3)C2)c(C(=O)Nc2ccc(C(=O)N3CCc4c(sc(NC(=O)c5ccccc5F)c4F)-c4ccccc43)cc2)c1` [Example 307]: the EC50 was less than 0.01 µM.
`Cc1cnc(N2CC3(CCOCC3)C2)c(C(=O)Nc2ccc(C(=O)N3CCc4cc(NC(=O)c5c(F)cccc5Cl)sc4-c4ccccc43)cc2)c1` [Example 282]: the 50% effective concentration (EC50) is less than 0.01 µM.
For the molecule `O=C(Nc1ccccc1F)c1cc2c(o1)-c1ccccc1N(C(=O)c1ccc(NC(=O)c3cc4c(nc3N3CC5(CCOCC5)C3)CCC4)cc1)CC2` [Example 255], the half-maximal effective concentration (EC50) is less than 0.01 µM.
On the same count and under the same terms, the value for `CC1(CNc2ncccc2C(=O)Nc2ccc(C(=O)N3CCc4cc(C(=O)Nc5c(F)cccc5F)sc4-c4ccc(F)cc43)cc2)CCCO1` (centres unmarked) [Example 58] was more than 0.05 µM.
The same measure, in the same setting: the value for `Cc1cc(C(=O)Nc2ccc(C(=O)N3CCc4c(sc(C(=O)Nc5c(F)cccc5F)c4F)-c4ccccc43)cc2)c(N2CC3(CCOCC3)C2)nc1C` [Example 220] was less than 0.01 µM.
Take `Cc1cnc(N2CC3(CCOCC3)C2)c(C(=O)Nc2ccc(C(=O)N3CCc4cc(-c5cccnn5)sc4-c4ccc(F)cc43)cc2)c1` [Example 190]: the EC50 was less than 0.01 µM.
As to `Cc1cnc(N2CC3(CCOCC3)C2)c(C(=O)Nc2ccc(C(=O)N3CCc4cc(-c5ccc(=O)[nH]c5)sc4-c4ccc(F)cc43)cc2)c1` [Example 184], the EC50 was less than 0.01 µM.
With `Cc1cnc(N2CC3(CCOCC3)C2)c(C(=O)Nc2ccc(C(=O)N3CCc4c(sc(C(=O)Nc5ncncc5F)c4F)-c4ccccc43)cc2)c1` [Example 222], the concentration for a half-maximal effect (EC50) is less than 0.01 µM.
Same read-out and setting: the value for `Cc1cnc(N2CC3(CCOCC3)C2)c(C(=O)Nc2ccc(C(=O)N3CCc4cc(C(=O)Nc5ccccc5F)sc4-c4ccc(F)cc43)cc2)c1` [Example 8] was less than 0.01 µM.
Same read-out and setting: the value for `Cc1cnc(N2CC3(CCOCC3)C2)c(C(=O)Nc2ccc(C(=O)N3CCc4c(sc(C(=O)Nc5cc(F)ccc5F)c4F)-c4ccccc43)cc2)c1` [Example 212] was 0.01 to 0.05 µM; that for `Cc1cnc(N2CC3(CCOCC3)C2)c(C(=O)Nc2ccc(C(=O)N3CCc4cc(C(=O)Nc5c(F)cccc5F)sc4-c4ccc(F)cc43)cc2)c1` [Example 12] was less than 0.01 µM; that for `Cc1cnc(N2CC3(CCOCC3)C2)c(C(=O)Nc2ccc(C(=O)N3CCc4cc(-c5c[nH]c6ccc(Cl)cc56)sc4-c4ccc(F)cc43)cc2)c1` [Example 174] was more than 0.05 µM.
Same read-out and setting: as for `Cc1cnc(N2CC3(CCOCC3)C2)c(C(=O)Nc2ccc(C(=O)N3CCc4cc(-c5cnc6[nH]ncc6c5)sc4-c4ccc(F)cc43)cc2)c1` [Example 179], the figure is less than 0.01 µM; as for `Cc1cnc(N2CC3(CCOCC3)C2)c(C(=O)Nc2ccc(C(=O)N3CCc4cc(NC(=O)OCC(F)(F)F)sc4-c4ccccc43)cc2)c1` [Example 295], less than 0.01 µM.
`O=C(Nc1c(F)cccc1Cl)c1cc2c(s1)-c1ccc(F)cc1N(C(=O)c1ccc(NC(=O)c3cccnc3N3CC4(CCOCC4)C3)cc1)CC2` [Example 20]: the half-maximal effective concentration (EC50) is less than 0.01 µM.
On the same count and under the same terms, the value for `Cc1ccc(C(=O)Nc2ccc(C(=O)N3CCc4cc(C(=O)Nc5c(F)cccc5C(F)(F)F)sc4-c4ccc(F)cc43)cc2)c(N2CC3(CCOCC3)C2)n1` [Example 113] was less than 0.01 µM; that for `O=C(Nc1ccc(C(=O)N2CCc3cc(-c4nc5ccccc5[nH]4)sc3-c3ccc(Cl)cc32)cc1)c1cccnc1N1CC2(CCOCC2)C1` [Example 82] was 0.01 to 0.05 µM.
As for `Cc1cnc(N2CC3(CCOCC3)C2)c(C(=O)Nc2ccc(C(=O)N3CCc4c(sc(C(=O)Nc5c(F)cc(F)cc5F)c4F)-c4ccccc43)cc2)c1` [Example 94], the concentration for a half-maximal effect (EC50) is less than 0.01 µM.
Still for that read-out and setting: the value for `CCn1nccc1-c1cc2c(s1)-c1ccc(F)cc1N(C(=O)c1ccc(NC(=O)c3cc(C)cnc3N3CC4(CCOCC4)C3)cc1)CC2` [Example 171] was less than 0.01 µM; that for `Cc1cnc(N2CC3(CCOCC3)C2)c(C(=O)Nc2ccc(C(=O)N3CCc4c(sc(C(=O)Nc5ccccc5F)c4F)-c4ccccc43)cc2)c1` [Example 205] was less than 0.01 µM; that for `O=C(Nc1c(F)cccc1F)c1cc2c(s1)-c1ccc(F)cc1N(C(=O)c1ccc(NC(=O)c3cccnc3N3CC4CCC(C3)O4)cc1)CC2` [Example 50] was 0.01 to 0.05 µM.
On to `CCOCCNc1ncccc1C(=O)Nc1ccc(C(=O)N2CCc3cc(C(=O)Nc4c(F)cccc4F)sc3-c3ccc(F)cc32)cc1` [Example 54], for which the 50% effective concentration (EC50) was more than 0.05 µM.
On the same count and under the same terms, as for `Cc1ccc(C(=O)Nc2ccc(C(=O)N3CCc4cc(NC(=O)OC5CCC5)sc4-c4ccccc43)cc2)c(N2CC3(CCOCC3)C2)n1` [Example 298], the figure is 0.01 to 0.05 µM; as for `O=C(Nc1c(F)cc(F)cc1Cl)c1cc2c(s1)-c1ccc(Cl)cc1N(C(=O)c1ccc(NC(=O)c3cccnc3N3CC4(CCOCC4)C3)cc1)CC2` [Example 84], 0.01 to 0.05 µM.
Still for that read-out and setting: the value for `Cc1cnc(N2CC3(CCOCC3)C2)c(C(=O)Nc2ccc(C(=O)N3CCc4c(sc(C(=O)Nc5ccc(F)cc5F)c4F)-c4ccccc43)cc2)c1` [Example 209] was less than 0.01 µM.
Take `Cc1cnc(N2CC3(CCOCC3)C2)c(C(=O)Nc2ccc(C(=O)N3CCc4cc(-c5ccnn5C)sc4-c4ccc(F)cc43)cc2)c1` [Example 161]: the 50% effective concentration (EC50) was less than 0.01 µM.
On the same count and under the same terms, as for `Cc1cnc(N2CC3(CCOCC3)C2)c(C(=O)Nc2ccc(C(=O)N3CCc4cc(NC(=O)c5c(F)cccc5F)sc4-c4ccccc43)cc2)c1` [Example 275], the figure is less than 0.01 µM; as for `Cc1cnc(NC(=O)c2sc3c(c2F)CCN(C(=O)c2ccc(NC(=O)c4cc(C)cnc4N4CC5(CCOCC5)C4)cc2)c2ccccc2-3)c(F)c1` [Example 230], less than 0.01 µM; as for `Cc1cnc(N2CC3(CCOCC3)C2)c(C(=O)Nc2ccc(C(=O)N3CCc4cc(NC(=O)OC5CCCC5)sc4-c4ccccc43)cc2)c1` [Example 293], 0.01 to 0.05 µM.
The same measure, in the same setting: the value for `Cc1cnc(N2CC3(CCOCC3)C2)c(C(=O)Nc2ccc(C(=O)N3CCc4cc(-c5nnnn5C5CC5)sc4-c4ccc(F)cc43)cc2)c1` [Example 194] was 0.01 to 0.05 µM; that for `Cc1cnc(N2CC3(CCOCC3)C2)c(C(=O)Nc2ccc(C(=O)N3CCc4cc(-c5ccc6[nH]ncc6c5)sc4-c4ccc(F)cc43)cc2)c1` [Example 178] was less than 0.01 µM.
The same measure, in the same setting: as for `O=C(Nc1ccc(C(=O)N2CCc3cc(-c4nc5ccccc5[nH]4)sc3-c3ccc(F)cc32)cc1)c1cccnc1N1CC2(CCOCC2)C1` [Example 38], the figure is 0.01 to 0.05 µM.

Still in this test, the particulars now being: human respiratory syncytial virus, HEp-2, 96 h, read-out: Human RSV-A (“Long” strain) EC50.
`Cc1ccc(C(=O)Nc2ccc(C(=O)N3CCc4cc(NC(=O)Oc5ccccc5)sc4-c4ccccc43)cc2)c(N2CC3(CCOCC3)C2)n1` [Example 302]: the concentration giving a half-maximal response (EC50) was more than 0.05 µM.
